Measurements as given in paper PMC12132378 (bioRxiv, 2025).

Target: T1, DTX2 (Homo sapiens, UniProt Q86UW9)
T1 sequence (Q86UW9 1-622): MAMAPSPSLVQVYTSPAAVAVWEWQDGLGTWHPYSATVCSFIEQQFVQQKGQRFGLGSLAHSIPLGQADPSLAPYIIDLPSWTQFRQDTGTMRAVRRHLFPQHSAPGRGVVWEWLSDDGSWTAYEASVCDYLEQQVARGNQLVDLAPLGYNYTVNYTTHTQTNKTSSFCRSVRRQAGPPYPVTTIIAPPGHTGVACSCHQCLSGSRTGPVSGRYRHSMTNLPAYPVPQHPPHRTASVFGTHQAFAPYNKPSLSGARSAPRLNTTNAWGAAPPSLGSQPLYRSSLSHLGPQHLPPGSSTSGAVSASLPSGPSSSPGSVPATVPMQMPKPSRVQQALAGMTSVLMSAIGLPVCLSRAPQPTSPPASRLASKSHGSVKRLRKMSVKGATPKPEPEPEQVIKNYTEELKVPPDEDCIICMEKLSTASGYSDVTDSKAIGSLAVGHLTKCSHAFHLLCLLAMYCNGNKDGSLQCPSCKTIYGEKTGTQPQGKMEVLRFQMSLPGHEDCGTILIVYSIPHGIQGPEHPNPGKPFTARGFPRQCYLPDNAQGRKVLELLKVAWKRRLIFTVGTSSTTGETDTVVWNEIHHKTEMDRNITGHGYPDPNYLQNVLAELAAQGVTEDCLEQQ
Experiment: ubiquitylation of OP-ADPr, ion exchange and intact mass spectrometry
Type: biochemical
Conditions: co-substrate purified E2~Ub conjugate; pH 7.4, 37 °C, 150 mM NaCl

## C#CCO[C@H]1O[C@H](COP(=O)(O)OP(=O)(O)OC[C@H]2O[C@@H](n3cnc4c(N)ncnc43)[C@H](O)[C@@H]2O)[C@@H](O)[C@H]1O [compound 8, OP-ADPr]
  ubiquitylation of OP-ADPr, ion exchange and intact mass spectrometry: We next coupled Ub to OP-ADPr using DTX2 to generate an ester-linked Ub-OP-ADPr
